From patent publication US12428408B2, “Fused heterocyclic mescaline derivatives” (Enveric Biosciences Canada Inc., priority 2022, dated 2025)

Tests used:
[1] = biological target: T1, MT1 (ML1A) (h) (Homo sapiens, UniProt P48039); experiment: Competition assay to measure binding affinity at MT1 receptor; details: test ligand 10 μM; [125I]2-iodomelatonin 0.01 nM
T1 construct: host or cells: CHO cells

[2] = biological target: T2, alpha2A (h) (Homo sapiens, UniProt P08913); experiment: Competition assay to measure binding affinity at alpha2A receptor; details: test ligand 10 μM, [3H]RX 821002 1 nM; for inhibition at 10 µM: read-out: α-2A, percent of control-specific binding
T2 construct: host or cells: CHO cells
T2 sequence (P08913 1-465): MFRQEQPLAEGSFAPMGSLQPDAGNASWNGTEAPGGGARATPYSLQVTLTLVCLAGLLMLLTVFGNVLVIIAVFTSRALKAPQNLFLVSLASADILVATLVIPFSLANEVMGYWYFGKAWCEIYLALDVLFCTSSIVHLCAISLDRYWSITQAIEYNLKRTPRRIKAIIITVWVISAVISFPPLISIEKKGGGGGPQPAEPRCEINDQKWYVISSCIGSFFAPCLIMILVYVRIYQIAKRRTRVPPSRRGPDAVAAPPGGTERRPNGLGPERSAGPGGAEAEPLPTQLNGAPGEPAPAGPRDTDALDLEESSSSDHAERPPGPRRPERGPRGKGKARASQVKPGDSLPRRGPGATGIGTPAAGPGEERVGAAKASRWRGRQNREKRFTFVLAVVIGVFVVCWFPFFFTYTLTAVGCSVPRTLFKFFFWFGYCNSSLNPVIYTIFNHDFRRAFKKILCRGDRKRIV

[3] = biological target: T3, 5-HT2B (h) (Homo sapiens, UniProt P41595); experiment: Competition assay to measure binding affinity at 5-HT2B receptor; details: test ligand 10 μM; [3H]mesulergine 2 nM
T3 construct: host or cells: CHO cells

[4] = biological target: T4, 5-HT1D (r) (Rattus norvegicus, UniProt P28565); experiment: Competition assay to measure binding affinity at 5-HT1D receptor; details: test ligand 10 μM; [3H]serotonin 1 nM
T4 construct: host or cells: CHO cells

[5] = biological target: T5, D2 (h) (Homo sapiens, UniProt P14416); experiment: Competition assay to measure binding affinity at D2L receptor; details: test ligand 10 μM; [3H]methylspiperone 0.3 nM
T5 construct: host or cells: HEK-293 cells

[6] = biological target: T6, human serotonin transporter (SERT) (Homo sapiens, UniProt P31645); experiment: biochemical; type: binding
T6 construct: purchased PerkinElmer RBHSTM400UA

[7] = biological target: T7, DAT (h) (Homo sapiens, UniProt Q01959); experiment: Competition assay to measure binding affinity at dopamine transporter (DAT); details: test ligand 10 μM; [3H]BTCP 4 nM
T7 construct: host or cells: CHO cells

[8] = biological target: T8, NET (h) (Homo sapiens, UniProt P23975); experiment: Competition assay to measure binding affinity at norepinephrine transporter (NET); details: test ligand 10 μM; [3H]nisoxetine 1 nM
T8 construct: host or cells: CHO cells

[9] = biological target: T9, D3 (h) (Homo sapiens, UniProt P35462); experiment: Competition assay to measure binding affinity at D3 receptor; details: test ligand 10 μM; [3H]methylspiperone […]
T9 construct: host or cells: CHO cells

[10] = biological target: T10, 5-HT1B (h) (Homo sapiens, UniProt P28222); experiment: Competition assay to measure binding affinity at 5-HT1B receptor; details: test ligand 10 μM; [3H]GR125743 1 nM
T10 construct: host or cells: Chem-1 (RBL) cells

[11] = biological target: T11, 5-HT2C (h) (Homo sapiens, UniProt P28335); experiment: Competition assay to measure binding affinity at 5-HT2C receptor; details: test ligand 10 μM; [125I](±)DOI 0.1 nM
T11 construct: host or cells: HEK-293 cells
T11 sequence (P28335 33-458): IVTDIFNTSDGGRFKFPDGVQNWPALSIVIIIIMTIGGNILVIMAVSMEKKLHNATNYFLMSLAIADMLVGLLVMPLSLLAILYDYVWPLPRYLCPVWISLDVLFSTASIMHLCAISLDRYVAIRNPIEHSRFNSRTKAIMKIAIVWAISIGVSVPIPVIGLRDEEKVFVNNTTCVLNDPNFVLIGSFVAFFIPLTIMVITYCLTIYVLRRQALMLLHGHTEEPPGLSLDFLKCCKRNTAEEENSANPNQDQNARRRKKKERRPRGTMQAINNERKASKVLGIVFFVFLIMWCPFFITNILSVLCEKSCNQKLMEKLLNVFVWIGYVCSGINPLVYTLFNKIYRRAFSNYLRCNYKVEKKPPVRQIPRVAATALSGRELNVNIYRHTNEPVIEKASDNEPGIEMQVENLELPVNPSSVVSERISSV

[12] = biological target: 5-HT2A receptor (Homo sapiens, UniProt P28223); experiment: 5-HT2A receptor radioligand competition assay (SPA)
[13] = biological target: T12, 5-HT1A receptor (Homo sapiens, UniProt P08908); experiment: 5-HT1A receptor radioligand competition assay (SPA); type: binding; details: for Ki: competition with 0.5 nM 8-hydroxy-DPAT [3H], test compound 3 nM to 1 mM, read-out: 5-HT1A, Ki
T12 construct: purchased Perkin Elmer 6110501400UA
T12 sequence (P08908 1-422): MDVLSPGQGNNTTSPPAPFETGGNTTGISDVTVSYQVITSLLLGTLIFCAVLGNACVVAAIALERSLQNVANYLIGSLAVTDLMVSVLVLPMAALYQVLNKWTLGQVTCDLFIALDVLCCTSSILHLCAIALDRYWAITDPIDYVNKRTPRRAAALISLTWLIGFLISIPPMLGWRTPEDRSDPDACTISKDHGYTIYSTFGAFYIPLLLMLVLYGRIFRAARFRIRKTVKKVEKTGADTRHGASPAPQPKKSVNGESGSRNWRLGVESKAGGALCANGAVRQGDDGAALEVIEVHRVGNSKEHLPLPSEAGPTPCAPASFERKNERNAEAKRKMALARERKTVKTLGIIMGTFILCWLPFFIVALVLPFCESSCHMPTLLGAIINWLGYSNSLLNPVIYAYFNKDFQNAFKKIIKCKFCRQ

[14] = biological target: T13, 5-HT7 (h) (Homo sapiens, UniProt P34969); experiment: Competition assay to measure binding affinity at 5-HT7 receptor; details: test ligand 10 μM; [3H]LSD 4 nM
T13 construct: host or cells: HEK-293 cells
T13 sequence (P34969 whole entry): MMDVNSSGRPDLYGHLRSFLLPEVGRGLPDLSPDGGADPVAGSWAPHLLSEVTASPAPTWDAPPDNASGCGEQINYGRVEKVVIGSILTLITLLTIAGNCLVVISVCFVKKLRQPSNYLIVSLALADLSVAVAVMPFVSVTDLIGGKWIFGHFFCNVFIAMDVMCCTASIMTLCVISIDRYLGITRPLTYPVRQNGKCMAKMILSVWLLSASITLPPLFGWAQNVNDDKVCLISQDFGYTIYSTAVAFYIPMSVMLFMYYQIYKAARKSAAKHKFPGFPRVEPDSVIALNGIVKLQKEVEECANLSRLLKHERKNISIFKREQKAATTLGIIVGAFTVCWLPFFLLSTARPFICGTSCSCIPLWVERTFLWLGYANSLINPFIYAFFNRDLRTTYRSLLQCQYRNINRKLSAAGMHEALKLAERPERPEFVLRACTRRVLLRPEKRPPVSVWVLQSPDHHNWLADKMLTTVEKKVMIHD

T9 sequence (P35462 whole entry): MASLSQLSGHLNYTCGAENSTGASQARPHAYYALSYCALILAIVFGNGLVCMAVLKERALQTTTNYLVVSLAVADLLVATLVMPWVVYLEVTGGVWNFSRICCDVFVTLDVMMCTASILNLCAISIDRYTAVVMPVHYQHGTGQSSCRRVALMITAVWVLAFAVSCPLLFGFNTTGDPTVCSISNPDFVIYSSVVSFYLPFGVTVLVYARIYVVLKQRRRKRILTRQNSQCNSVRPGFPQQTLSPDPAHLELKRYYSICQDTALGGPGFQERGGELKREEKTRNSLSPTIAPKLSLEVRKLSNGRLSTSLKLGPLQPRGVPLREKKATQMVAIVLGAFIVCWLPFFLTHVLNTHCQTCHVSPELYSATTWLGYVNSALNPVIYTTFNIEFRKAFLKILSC
T4 sequence (P28565 whole entry): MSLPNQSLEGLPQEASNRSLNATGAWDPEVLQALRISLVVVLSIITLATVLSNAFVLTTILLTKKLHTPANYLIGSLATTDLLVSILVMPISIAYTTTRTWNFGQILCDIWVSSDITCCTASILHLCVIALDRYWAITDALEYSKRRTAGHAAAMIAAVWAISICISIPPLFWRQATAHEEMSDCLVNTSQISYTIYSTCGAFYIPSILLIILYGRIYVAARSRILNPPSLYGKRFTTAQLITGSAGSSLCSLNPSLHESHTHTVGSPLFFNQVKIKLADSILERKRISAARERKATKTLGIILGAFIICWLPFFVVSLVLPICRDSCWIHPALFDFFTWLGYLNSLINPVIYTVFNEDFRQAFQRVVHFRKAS
T10 sequence (P28222 whole entry): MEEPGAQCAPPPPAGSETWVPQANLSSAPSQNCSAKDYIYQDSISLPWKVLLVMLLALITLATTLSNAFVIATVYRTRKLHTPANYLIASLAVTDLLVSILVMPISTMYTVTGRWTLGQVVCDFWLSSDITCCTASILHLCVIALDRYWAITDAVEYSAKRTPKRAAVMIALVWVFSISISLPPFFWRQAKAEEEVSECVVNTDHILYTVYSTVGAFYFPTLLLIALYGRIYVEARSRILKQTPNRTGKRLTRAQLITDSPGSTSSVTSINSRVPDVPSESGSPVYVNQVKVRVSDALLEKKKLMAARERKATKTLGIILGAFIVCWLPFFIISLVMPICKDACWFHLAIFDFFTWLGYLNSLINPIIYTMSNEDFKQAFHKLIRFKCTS
T3 sequence (P41595 whole entry): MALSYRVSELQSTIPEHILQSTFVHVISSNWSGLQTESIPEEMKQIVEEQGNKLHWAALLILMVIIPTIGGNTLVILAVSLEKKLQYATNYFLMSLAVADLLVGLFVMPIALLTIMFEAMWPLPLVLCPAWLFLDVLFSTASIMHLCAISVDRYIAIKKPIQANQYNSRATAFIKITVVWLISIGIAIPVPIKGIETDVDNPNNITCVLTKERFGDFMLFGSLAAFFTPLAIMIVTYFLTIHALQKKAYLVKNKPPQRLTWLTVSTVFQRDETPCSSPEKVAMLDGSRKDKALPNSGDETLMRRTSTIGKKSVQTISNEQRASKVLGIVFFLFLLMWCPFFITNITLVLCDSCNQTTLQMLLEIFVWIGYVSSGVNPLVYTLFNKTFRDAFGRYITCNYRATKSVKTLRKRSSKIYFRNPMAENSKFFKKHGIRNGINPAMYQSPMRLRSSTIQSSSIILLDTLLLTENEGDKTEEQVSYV
T6 sequence (P31645 whole entry): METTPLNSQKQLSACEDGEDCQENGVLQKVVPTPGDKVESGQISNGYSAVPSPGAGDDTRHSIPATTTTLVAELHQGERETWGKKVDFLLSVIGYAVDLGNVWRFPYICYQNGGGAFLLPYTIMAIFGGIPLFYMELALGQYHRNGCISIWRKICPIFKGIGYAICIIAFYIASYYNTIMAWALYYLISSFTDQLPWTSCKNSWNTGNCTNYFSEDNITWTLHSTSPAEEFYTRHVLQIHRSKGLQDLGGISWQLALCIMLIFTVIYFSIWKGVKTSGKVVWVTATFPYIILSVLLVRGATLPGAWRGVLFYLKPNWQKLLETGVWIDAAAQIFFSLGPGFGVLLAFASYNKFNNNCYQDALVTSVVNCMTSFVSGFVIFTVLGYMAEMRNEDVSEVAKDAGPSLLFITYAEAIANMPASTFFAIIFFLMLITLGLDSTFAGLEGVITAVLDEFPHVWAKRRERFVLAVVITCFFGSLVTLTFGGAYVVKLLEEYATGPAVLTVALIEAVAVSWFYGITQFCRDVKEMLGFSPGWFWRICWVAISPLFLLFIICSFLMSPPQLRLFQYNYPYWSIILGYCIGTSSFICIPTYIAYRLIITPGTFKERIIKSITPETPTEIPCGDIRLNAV
T5 sequence (P14416 whole entry): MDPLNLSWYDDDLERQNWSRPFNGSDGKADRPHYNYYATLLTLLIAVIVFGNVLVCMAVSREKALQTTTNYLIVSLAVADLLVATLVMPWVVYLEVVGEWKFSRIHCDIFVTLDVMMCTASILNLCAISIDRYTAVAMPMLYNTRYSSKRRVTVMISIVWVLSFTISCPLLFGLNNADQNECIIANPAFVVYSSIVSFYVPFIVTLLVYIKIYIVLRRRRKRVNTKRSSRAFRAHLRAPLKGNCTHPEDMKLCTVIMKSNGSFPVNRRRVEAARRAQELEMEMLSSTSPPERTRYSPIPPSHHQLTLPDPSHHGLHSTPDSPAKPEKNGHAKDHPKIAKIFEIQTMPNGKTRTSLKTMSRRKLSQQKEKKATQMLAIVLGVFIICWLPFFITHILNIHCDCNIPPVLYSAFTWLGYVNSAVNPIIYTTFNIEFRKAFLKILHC
T8 sequence (P23975 whole entry): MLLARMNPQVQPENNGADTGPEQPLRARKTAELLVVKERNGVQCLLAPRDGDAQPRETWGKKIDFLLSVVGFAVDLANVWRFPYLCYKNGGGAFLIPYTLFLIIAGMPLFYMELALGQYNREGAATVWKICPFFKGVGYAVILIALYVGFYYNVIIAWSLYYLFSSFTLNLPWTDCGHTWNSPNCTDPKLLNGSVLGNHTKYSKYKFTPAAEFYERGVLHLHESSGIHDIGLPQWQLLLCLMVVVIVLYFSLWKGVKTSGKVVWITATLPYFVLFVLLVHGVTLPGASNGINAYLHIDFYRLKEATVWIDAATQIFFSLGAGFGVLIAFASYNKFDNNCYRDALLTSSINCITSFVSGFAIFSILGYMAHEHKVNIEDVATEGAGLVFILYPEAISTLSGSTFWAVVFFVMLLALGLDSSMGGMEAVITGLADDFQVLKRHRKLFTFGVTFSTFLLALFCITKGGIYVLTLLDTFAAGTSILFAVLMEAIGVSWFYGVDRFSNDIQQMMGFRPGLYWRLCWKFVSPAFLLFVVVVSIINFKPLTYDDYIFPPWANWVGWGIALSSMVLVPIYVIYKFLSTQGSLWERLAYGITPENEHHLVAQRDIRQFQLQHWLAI
T7 sequence (Q01959 whole entry): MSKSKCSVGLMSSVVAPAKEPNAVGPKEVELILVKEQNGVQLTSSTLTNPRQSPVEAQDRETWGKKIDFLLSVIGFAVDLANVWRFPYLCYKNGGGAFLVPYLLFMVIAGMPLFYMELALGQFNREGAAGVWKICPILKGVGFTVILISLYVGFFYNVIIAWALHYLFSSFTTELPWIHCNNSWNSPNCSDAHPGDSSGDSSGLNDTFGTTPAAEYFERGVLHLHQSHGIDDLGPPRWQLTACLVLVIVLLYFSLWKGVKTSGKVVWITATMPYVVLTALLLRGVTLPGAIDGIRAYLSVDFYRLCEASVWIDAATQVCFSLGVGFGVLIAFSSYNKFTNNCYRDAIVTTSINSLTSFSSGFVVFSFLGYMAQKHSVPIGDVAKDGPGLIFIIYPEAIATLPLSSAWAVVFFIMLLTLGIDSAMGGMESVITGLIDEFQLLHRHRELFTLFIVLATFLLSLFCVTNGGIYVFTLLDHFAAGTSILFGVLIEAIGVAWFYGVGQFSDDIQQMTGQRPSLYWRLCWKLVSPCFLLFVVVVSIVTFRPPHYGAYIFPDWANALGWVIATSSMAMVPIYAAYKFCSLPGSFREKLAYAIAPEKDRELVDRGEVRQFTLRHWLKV
T1 sequence (P48039 whole entry): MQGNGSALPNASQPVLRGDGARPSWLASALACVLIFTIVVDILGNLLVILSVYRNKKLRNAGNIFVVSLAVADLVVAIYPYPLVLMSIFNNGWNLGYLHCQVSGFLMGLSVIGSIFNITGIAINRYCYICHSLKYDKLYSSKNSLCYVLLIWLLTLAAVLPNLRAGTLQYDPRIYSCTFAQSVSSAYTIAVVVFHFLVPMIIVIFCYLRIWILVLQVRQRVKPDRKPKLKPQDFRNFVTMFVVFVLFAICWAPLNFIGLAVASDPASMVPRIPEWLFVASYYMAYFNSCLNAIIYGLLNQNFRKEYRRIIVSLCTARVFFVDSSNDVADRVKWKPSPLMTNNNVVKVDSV

Row | SMILES | MT1, percent of control-specific binding [1] | inhibition at 10 µM [2] | HT2B, percent of control-specific binding [3] | HT1D, percent of control-specific binding [4] | D2, percent of control-specific binding [5] | Ki [6] | SERT binding, binding curve in words [6] | DAT, percent of control-specific binding [7] | NET, percent of control-specific binding [8] | D3, percent of control-specific binding [9] | HT1B, percent of control-specific binding [10] | HT2C, percent of control-specific binding [11] | Ki [12] | Ki [13] | HT7, percent of control-specific binding [14] | α-2A, percent of control-specific binding [2] | 5-HT1A receptor binding, binding curve in words ([13]; FIGS. 35C-35L)
1 | Cc1ccc(Sc2ccccc2N2CCNCC2)c(C)c1 [vortioxetine, reference compound] | 26% | 62% | 97% | 100% | 51% | 0.00203 µM | very tight interaction | 90% | 99% | 88% | 101% | 99% | – | – | – | – | –
2 | O=C(Cc1c(Br)ccc2c1OCO2)N1CCCC1 [A(XXVI)] | 30% | 0% | 1% | 0% | 0% | – | – | 0% | 0% | 0% | 0% | 1% | 31 µM | 0.0444 mM | 0% | – | –
3 | CON(C)C(C)Cc1ccc2c(c1)OCO2 (centres unmarked) [A(XVIII)] | 6% | 0% | 9% | 0% | 0% | 98 µM | – | 5% | 1% | 5% | 6% | 3% | – | > 1 mM | 6% | – | –
4 | COc1cc2c(cc1CC(=O)NCCO)OCO2 [A(XXII)] | 18% | 0% | 14% | 5% | 0% | 52.3 µM | – | 0% | 1% | 3% | 0% | 15% | – | > 1 mM | 20% | – | –
5 | N#Cc1ccc2[nH]cc(CCCCN3CCN(c4ccc5oc(C(N)=O)cc5c4)CC3)c2c1 [Vilazodone, reference compound] | 84% | 65% | 96% | 97% | 97% | – | – | 98% | 99% | 99% | 67% | 92% | – | – | – | – | –
6 | COc1cc(CC(C)N)c(OC)cc1Br (centres unmarked) [DOB, reference compound] | −3% | – | 97% | 84% | 9% | – | – | 3% | 6% | 25% | 20% | – | – | – | 65% | 66% | –
7 | O=C(Cc1ccc2c(c1)OC(F)(F)O2)N1CCCC1 [A(XXVII)] | 2% | 0% | 5% | 2% | 0% | 634 µM | – | 5% | 15% | 0% | 0% | 9% | – | > 1 mM | 0% | – | –
8 | N[C@@H](Cc1c[nH]c2ccccc12)C(=O)O [tryptophan, reference compound] | −2% | -4% | 0% | 3% | −19% | > 1000 µM | no binding to SERT | 1% | 1% | −23% | −22% | 25% | – | > 1 mM | – | – | no binding
